US5726156A, “Cytokine regulatory agents and methods of use in pathologies and conditions associated with altered cytokine levels” (Trega Biosciences, Inc., priority 1995, dated 1998)

Legend:
[1] = test system: arachidonic acid-induced ear swelling; test: Arachidonic acid-induced ear swelling; type: in vivo, mice; settings: 100 μg/mouse IP 30 min prior to AA; 60 min after AA
Description: Experiments were performed using female Balb/c mice weighing 18-23 grams. Saline or 100 μg EX-2 or EX-3 was administered IP, 30 min prior to topical application of arachidonic acid (AA). A 10 μl pipet was used to apply 10 μl AA solution (100 mg/ml ethanol; Calbiochem-Novabiochem; San Diego Calif.) to the inner and outer surfaces of the right ear of each mouse. Ten μl ethanol, alone, was applied to the inner and outer surface of the left ear of each mouse. Ear thickness was measured with a hand-held spring loaded caliper immediately before and 60 min after AA application. Increase in ear thickness was calculated by subtracting the change observed in the control ear from the change observed in AA-treated ear. The value for each group (saline and control) is the average of the swelling observed in the individual mice in each group. The percent reduction of swelling is based on the swelling observed in the saline control group.

[2] = test system: morphine-induced respiratory depression; test: Morphine-induced respiratory depression; type: in vivo, rabbits; settings: 10 + 20 + 20 μg/kg/rabbit iv; end of experiment (80 min)
Description: Male Shelton rabbits (3-4 kg) were restrained and fitted around the thorax, just behind the front limbs, with a respiration transducer (Model F-RCT; Grass Instruments; Quincy Ma). The transducer was connected to a grass polygraph via an EKG cable. An intravenous line was established for drug administration by cannulating the marginal ear vein using a 25 G butterfly needle.
Rabbit breathing was allowed to stabilize, then morphine sulfate (2 mg/kg in 0.5 ml saline) was administered by intravenous (iv) injection and respiratory rate and depth were monitored for 10 min. A second dose of morphine was administered, then, after 10 min, EX-2 or EX-3 (10 μg/kg in 0.5 ml saline) was administered, iv, and rabbits were monitored for 20 min. Two additional doses of EX-2 or EX-3 (20 μg/kg in 1.0 ml saline) were administered at 20 min intervals, i.e., 40 min and 60 min after the first morphine injection.
Results were calculated as the percent change from baseline values and are expressed as the difference of the mean value of the treated group minus the mean value of the control group at the end of the experiment (80 min).

[3] = Reduction in body weight, Zucker fa/fa and Fa/+ rats; type: in vivo
Description: Adult Zucker fatty rats (fa/fa; 325-350 g) or non-obese Zucker rats (Fa/+; 250-275 g) each were divided into two groups. One group each of fa/fa and Fa/+ rats received intraperitoneal (ip) injections of 250 μg/kg EX-2, 3×/day, for 86 days, followed by 2×/day treatments for an additional 29 days. The other group of fa/fa and Fa/+rats received saline on the same schedule.
Administration of EX-2 caused a significant decrease in the weight gain of fa/fa and of Fa/+ rats (see FIG. 4). Specifically, saline treated fa/fa rats gained about 360 g during the […], whereas EX-2 treated fa/fa rats only gained 275 g, representing a 24% decrease in weight gain. […] In Fa/+ rats, the decreased weight gain was more modest, but again correlated to fat mass rather than lean muscle mass.
In other experiments, fa/fa rats received 0.5-10 mg/kg EX-2, 2×/day, for 14 days (1-20 mg/day). […] This weight loss correlated with […] consumption by the EX-2 treated rats as compared to the controls.

[4] = test system: Carageenan-induced paw swelling; test: Carageenan-induced paw swelling; type: in vivo, mice; settings: 1 μg/mouse; 2 hr time point
Description: Carageenan-induced paw swelling was induced using a modification of the methods of Hiltz and Lipton, Peptides 11:979-982 (1990); Vinegar et al., Fed. Proc. 46:118-126 (1987); and Vinegar et al., J. Pharmacol. Expt. Therap. 166:96-103 (1969), each of which is incorporated herein by reference. Briefly, adult female Balb/c mice were anesthetized by IP injection of 7 mg/kg ketoamine and 0.6 mg/kg rompun. Foot pad thickness was measured using a spring loaded micrometer (Swiss Precision Instruments). Foot pad thickness was expressed in units of 1/100 inch. After baseline measurements were obtained, mice were injected into a hind foot pad with either 0.2 ml physiologic saline (control) or varying doses of EX-2 or EX-3 in 0.2 ml saline (treated). The first injection was followed immediately by injection of 0.02 ml of 0.15% K-carageenan (Sigma Chemical Co.; St. Louis, Mo.).
Hind foot pad thickness was measured hourly for six hr, the change in thickness was determined and the percent reduction in swelling due to treatment with EX-2 was calculated.

Zucker NIDDM diabetes = test: Heritable diabetes, Zucker NIDDM rats; type: in vivo; settings: 25 μg/kg every 8 hr for approximately three months
Description: Male Zucker rats are a well established rat model for heritable non-insulin dependent diabetes mellitus (NIDDM), as described, for example, by Ward et al., Ann. Clin. Lab. Sci., 24:266-277, (1994), which is incorporated herein by reference. Eighteen male Zucker rats were used to study the effects of EX-2 on NIDDM, a chronic disease. The rats were placed into two groups and received either saline or 25 μg/kg EX-2 every 8 hr for approximately three months. Blood samples were collected by tail clip and urine samples were collected by placing animals in metabolic cages fro 24 hr. Plasma insulin was assayed using an RIA kit (Amersham Life Sciences, Arlington Heights, Ill.). Urine protein was assayed for using a commercial protein assay kit (Coomassie Plus, Pierce, Rockford, Ill.). Body weighed measurements were made with a Mettler Toledo top loader balance.

In the case of “Ac-Nle-Gln-His-(D)Phe-Arg-(D)Trp-Gly-NH2 [EX-2]”, the “Reduction in arachidonic acid-induced Ear Swelling” value [1] is reported as 72%, the “Reduction in Morphine-induced Respiratory Depression” value [2] is reported as 50% and the decreased weight gain ([3]; Fa/+ (non-obese) rats, 250 μg/kg ip) is reported as “more modest”. The “epididymal fat pad weight” value ([3]; fa/fa rats, 250 μg/kg ip) was “decreased epididymal fat pad weight”, the body weight gained ([3]; fa/fa rats, 250 μg/kg ip 3×/day then 2×/day, 105 day treatment, saline about 360 g) was 275 g and the “decrease in weight gain” value ([3]; fa/fa rats, 250 μg/kg ip, vs saline treated) was 24%. The “decrease in body weight” value ([3]; fa/fa rats, 20 mg EX-2/day (10 mg/kg 2×/day), 14 days) was about 10%, the “rate of weight gain” value ([3]; fa/fa rats, 0.5-10 mg/kg 2×/day, 14 days, each group) was “decreased rate of weight gain” and the “Reduction in Carageenan-induced Paw Swelling” value [4] was 45%. The “% Reduction, Zucker NIDDM Diabetes, Body Weight (grams)” value (Zucker NIDDM diabetes) was 32%, the “% Reduction, Zucker NIDDM Diabetes, Insulin (ng/ml)” value (Zucker NIDDM diabetes) was 39% and the “% Reduction, Zucker NIDDM Diabetes, Urine Protein (mg/24 hr)” value (Zucker NIDDM diabetes) was 87%. For the same substance, the “decrease in body weight” value (Zucker NIDDM diabetes) was “approximately 100 gram”.
